{"source": "patent US4304781A", "about": "“Treatment of ulcers and hypertension” (John Wyeth & Brother Limited, priority 1978, dated 1981)"}
{"tested_on": "stress-induced erosion", "assay": "Stress-induced erosion test (Senay & Levine), anti-ulcer activity", "type": "in vivo", "details": "10 mg/kg", "protocol": "(§1) Anti-ulcer activity was determined by the stress-induced erosion test of Senay & Levine, Proc. Soc. Exp. Biol. Med., 124, 1221-1223 (1967) and anti-secretory activity by the test of H. Shay, D. Sun and H. Greenstin, Gastroenterology, 1954, 26, 903-913 as exemplified by Beattie et al J. Med. Chem., 20, 714 (1977). […] However, some compounds show activity in tests for anti-hypertensive activity.", "units": {"inhibition in vivo at 10 mg/kg": "%"}}
{"compound": "C[n+]1ccccc1SCc1ccc(OCc2ccccc2)cc1", "note": "[Example 14, 2-(((4-Benzyloxy)benzyl)thio)-1-methylpyridinium chloride]", "inhibition in vivo at 10 mg/kg": 60}
{"tested_on": "stress-induced erosion", "assay": "Stress-induced erosion test (Senay & Levine), anti-ulcer activity", "type": "in vivo", "details": "30 mg/kg", "protocol": "as §1", "units": {"inhibition in vivo at 30 mg/kg": "%"}}
{"compound": "C[n+]1ccccc1SCc1ccccc1", "note": "[Example 1, 2-Benzylthio-1-methylpyridinium bromide]", "inhibition in vivo at 30 mg/kg": 92}
{"compound": "Cc1ccc(CSc2cccc[n+]2C)cc1C", "note": "[Example 8, 1-Methyl-2-(3,4-dimethylbenzylthio)pyridinium chloride]", "inhibition in vivo at 30 mg/kg": 70}
{"compound": "C[n+]1ccccc1SCc1ccc(Br)cc1", "note": "[Example 13, 2-(4-Bromobenzylthio)-1-methylpyridinium bromide]", "inhibition in vivo at 30 mg/kg": 73}
{"compound": "C[n+]1ccccc1SCc1ccc(OCc2ccccc2)cc1", "note": "[Example 14, 2-(((4-Benzyloxy)benzyl)thio)-1-methylpyridinium chloride]", "inhibition in vivo at 30 mg/kg": 73}
{"compound": "C[n+]1ccccc1SCc1ccccc1F", "note": "[Example 20, 2-((2-Fluorobenzyl)thio)-1-methyloyridinium chloride]", "inhibition in vivo at 30 mg/kg": 76}
{"compound": "C[n+]1ccccc1SCc1ccc(F)cc1", "note": "[Example 21, 2((4-Fluorobenzyl)thio)-1-methylpyridinium chloride]", "inhibition in vivo at 30 mg/kg": 71}
{"compound": "C[n+]1ccccc1SCc1cccc(F)c1", "note": "[Example 22, 2-((-3-Fluorobenzyl)thio)-1-methylpyridinium chloride]", "inhibition in vivo at 30 mg/kg": 64}
{"tested_on": "stress-induced erosion", "assay": "Stress-induced erosion test (Senay & Levine), anti-ulcer activity", "type": "in vivo", "details": "100 mg/kg", "protocol": "as §1", "units": {"inhibition in vivo at 100 mg/kg": "%"}}
{"compound": "C[n+]1ccccc1SCc1ccccc1", "note": "[Example 1, 2-Benzylthio-1-methylpyridinium bromide]", "inhibition in vivo at 100 mg/kg": 75}
{"compound": "C[n+]1ccccc1SCc1ccc([N+](=O)[O-])cc1", "note": "[Example 6, 1-Methyl-2-(4-nitrobenzylthio)pyridinium bromide]", "inhibition in vivo at 100 mg/kg": 84}
{"compound": "C[n+]1ccccc1SCCCc1ccccc1", "note": "[Example 7, 1-Methyl-2-(3-phenylpropylthio)pyridinium bromide]", "inhibition in vivo at 100 mg/kg": 77}
{"compound": "Cc1ccc(CSc2cccc[n+]2C)cc1C", "note": "[Example 8, 1-Methyl-2-(3,4-dimethylbenzylthio)pyridinium chloride]", "inhibition in vivo at 100 mg/kg": 62}
{"compound": "C[n+]1ccccc1SCc1ccc(Br)cc1", "note": "[Example 13, 2-(4-Bromobenzylthio)-1-methylpyridinium bromide]", "inhibition in vivo at 100 mg/kg": 70}
{"compound": "C[n+]1ccccc1SCc1ccc(OCc2ccccc2)cc1", "note": "[Example 14, 2-(((4-Benzyloxy)benzyl)thio)-1-methylpyridinium chloride]", "inhibition in vivo at 100 mg/kg": 90}
{"compound": "C[n+]1ccccc1SCc1ccccc1F", "note": "[Example 20, 2-((2-Fluorobenzyl)thio)-1-methyloyridinium chloride]", "inhibition in vivo at 100 mg/kg": 70}
{"compound": "C[n+]1ccccc1SCc1ccc(F)cc1", "note": "[Example 21, 2((4-Fluorobenzyl)thio)-1-methylpyridinium chloride]", "inhibition in vivo at 100 mg/kg": 82}
{"compound": "C[n+]1ccccc1SCc1cccc(F)c1", "note": "[Example 22, 2-((-3-Fluorobenzyl)thio)-1-methylpyridinium chloride]", "inhibition in vivo at 100 mg/kg": 72}
{"tested_on": "hypersecretion", "assay": "Anti-secretory activity test (Shay et al)", "type": "in vivo", "set-up": "key to Anti-secretory, % change in Vol.: NS: Not Significant", "details": "10 mg/kg; read-out: Anti-secretory, % change in Vol.", "protocol": "as §1", "units": {"change in vivo at 10 mg/kg": "%"}}
{"compound": "C[n+]1ccccc1SCc1ccc(OCc2ccccc2)cc1", "note": "[Example 14, 2-(((4-Benzyloxy)benzyl)thio)-1-methylpyridinium chloride]", "change in vivo at 10 mg/kg": -19}
{"compound": "C[n+]1ccccc1SCc1ccccc1F", "note": "[Example 20, 2-((2-Fluorobenzyl)thio)-1-methyloyridinium chloride]", "change in vivo at 10 mg/kg": -54}
{"compound": "C[n+]1ccccc1SCc1ccccc1Cl", "note": "[Example 27, 2-((2-Chlorobenzyl)thio)-1-methylpyridinium chloride]", "change in vivo at 10 mg/kg": -39}
{"tested_on": "hypersecretion", "assay": "Anti-secretory activity test (Shay et al)", "type": "in vivo", "set-up": "key to Anti-secretory, % change in Vol.: NS: Not Significant", "details": "30 mg/kg", "protocol": "as §1"}
{"compound": "C[n+]1ccccc1SCc1ccc([N+](=O)[O-])cc1", "note": "[Example 6, 1-Methyl-2-(4-nitrobenzylthio)pyridinium bromide]", "Anti-secretory, % change in Vol.": "NS"}
{"compound": "C[n+]1ccccc1SCCCc1ccccc1", "note": "[Example 7, 1-Methyl-2-(3-phenylpropylthio)pyridinium bromide]", "Anti-secretory, % change in Vol.": "NS"}
{"compound": "Cc1ccc(CSc2cccc[n+]2C)cc1C", "note": "[Example 8, 1-Methyl-2-(3,4-dimethylbenzylthio)pyridinium chloride]", "Anti-secretory, % change in Vol.": "NS"}
{"compound": "C[n+]1ccccc1SCc1ccc(Br)cc1", "note": "[Example 13, 2-(4-Bromobenzylthio)-1-methylpyridinium bromide]", "Anti-secretory, % change in Vol.": "NS"}
{"tested_on": "hypersecretion", "assay": "Anti-secretory activity test (Shay et al)", "type": "in vivo", "set-up": "key to Anti-secretory, % change in Vol.: NS: Not Significant", "details": "30 mg/kg; read-out: Anti-secretory, % change in Vol.", "protocol": "as §1", "units": {"change in vivo at 30 mg/kg": "%"}}
{"compound": "C[n+]1ccccc1SCc1ccccc1", "note": "[Example 1, 2-Benzylthio-1-methylpyridinium bromide]", "change in vivo at 30 mg/kg": -71}
{"compound": "CC(CSc1cccc[n+]1C)c1ccccc1", "note": "(stereo not shown) [Example 9, 1-Methyl-2-(2-phenylpropylthio)pyridinium bromide]", "change in vivo at 30 mg/kg": -32}
{"compound": "Cc1ccc(CSc2cccc[n+]2C)cc1", "note": "[Example 10, 1-Methyl-2(4-methylbenzylthio)pyridinium bromide]", "change in vivo at 30 mg/kg": -43}
{"compound": "C[n+]1ccccc1SCc1ccc(OCc2ccccc2)cc1", "note": "[Example 14, 2-(((4-Benzyloxy)benzyl)thio)-1-methylpyridinium chloride]", "change in vivo at 30 mg/kg": -49}
{"compound": "C[n+]1ccccc1SCC=Cc1ccccc1", "note": "[Example 16, 2-Cinnamylthio-1-methylpyridinium bromide]", "change in vivo at 30 mg/kg": -55}
{"compound": "CCOC(OCC)c1ccc[n+](-c2ccccc2)c1SCc1ccccc1", "note": "[Example 19, 2-Benzylthio-3-(diethoxy)methyl-1-phenylpyridinium chloride]", "change in vivo at 30 mg/kg": -88}
{"compound": "C[n+]1ccccc1SCc1ccccc1F", "note": "[Example 20, 2-((2-Fluorobenzyl)thio)-1-methyloyridinium chloride]", "change in vivo at 30 mg/kg": -90}
{"compound": "C[n+]1ccccc1SCc1ccc(F)cc1", "note": "[Example 21, 2((4-Fluorobenzyl)thio)-1-methylpyridinium chloride]", "change in vivo at 30 mg/kg": -67}
{"compound": "C[n+]1ccccc1SCc1cccc(F)c1", "note": "[Example 22, 2-((-3-Fluorobenzyl)thio)-1-methylpyridinium chloride]", "change in vivo at 30 mg/kg": -69}
{"compound": "COc1ccc(CSc2cccc[n+]2C)cc1", "note": "[Example 26, 2-((4-Methoxybenzyl)thio)-1-methylpyridinium chloride]", "change in vivo at 30 mg/kg": -46}
{"compound": "C[n+]1ccccc1SCc1ccccc1Cl", "note": "[Example 27, 2-((2-Chlorobenzyl)thio)-1-methylpyridinium chloride]", "change in vivo at 30 mg/kg": -66}
{"compound": "C[n+]1ccccc1SCc1cc(Cl)cc(Cl)c1", "note": "[Example 28, 2-(3,5-Dichlorobenzyl)thio)-1-methylpyridinium chloride]", "change in vivo at 30 mg/kg": -55}
{"compound": "c1ccc(CSc2ccccn2)cc1", "note": "[Example 38, 2-((Benzyl)thio)pyridine]", "change in vivo at 30 mg/kg": -32}
{"compound": "c1ccc(CSC2=NCCCC2)cc1", "note": "[Example 43, 2-Benzylthio-3,4,5,6-tetrahydropyridine]", "change in vivo at 30 mg/kg": -48}
{"compound": "C[N+]1=C(SCc2ccccc2)CCCC1", "note": "[Example 44, 2-Benzylthio-3,4,5,6-tetrahydro-1-methylpyridinium bromide]", "change in vivo at 30 mg/kg": -52}
{"compound": "c1ccc(CSc2cccc[n+]2Cc2ccccc2)cc1", "note": "[Example 45, 1-Benzyl-2-(benzylthio)pyridinium bromide]", "change in vivo at 30 mg/kg": -75}
